In patent US4123613A, “Substituted pyrazines as inhibitors of platelet aggregation” (Societa Farmaceutici Italia S.p.A., priority 1976, dated 1978):
≈ marks a conversion by molar mass, not a printed value. Read-outs that look alike come from different tables or passages of the source.

Test system: platelet aggregation (rabbit platelets, ADP-induced)
Assay: ADP-induced platelet aggregation in vitro (turbidimetric method, rabbit platelet-rich plasma)
Assay type: cell-based
Details: for inhibition at 25 µg/mL / inhibition at 50 µg/mL / inhibition at 100 µg/mL / inhibition at 200 µg/mL: Platelet, read-out: Percent inhibition of platelets aggregation; for inhibition at 25 µg/mL / inhibition at 50 µg/mL / inhibition at 100 µg/mL / inhibition at 200 µg/mL / Percent inhibition of platelets aggregation: tartrate salt
Procedure: In the biological tests hereafter described, the products were assayed as the tartrate salts.
Male rabbits weighing 2.5-3.5 Kg were used. Fifty four ml of blood were withdrawn from the carotid artery of rabbits anaesthetized with ether.
The PRP was obtained by centrifugation at 400 g for 10 minutes. The concentration of the platelets was adjusted to 250,000/mm^3 by diluting the PRP with PPP prepared by a second centrifugation of the blood samples for about 10 minutes at 2000 g.
The aggregation experiments were generally performed within 1-2 h from the time of blood collection.
In the cuvette of the aggregometer, reagents were added as follows: 0.8 ml drug solution or saline, and 0.2 ml ADP, at the molar concentration of 2.2 × 10^-4. The turbidimetry was checked after 11/2, 3 and 6 minutes. The inhibition of the aggregation is given in the table below as percent of ADP controls at the three times.

[1] = 25 γ/ml, 90 seconds after ADP (2.2 × 10^-4)
[2] = 25 γ/ml, 180 seconds after ADP (2.2 × 10^-4)
[3] = 25 γ/ml, 360 seconds after ADP (2.2 × 10^-4)
[4] = 50 γ/ml, 90 seconds after ADP (2.2 × 10^-4)
[5] = 50 γ/ml, 180 seconds after ADP (2.2 × 10^-4)
[6] = 50 γ/ml, 360 seconds after ADP (2.2 × 10^-4)
[7] = 100 γ/ml, 90 seconds after ADP (2.2 × 10^-4)
[8] = 100 γ/ml, 180 seconds after ADP (2.2 × 10^-4)
[9] = 100 γ/ml, 360 seconds after ADP (2.2 × 10^-4)
[10] = 200 γ/ml, 90 seconds after ADP (2.2 × 10^-4)
[11] = 200 γ/ml, 180 seconds after ADP (2.2 × 10^-4)
[12] = 200 γ/ml, 360 seconds after ADP (2.2 × 10^-4)
[13] = inhibition of platelet aggregation, at all three times

SMILES	activity (inhibition of platelet aggregation, in words) (at all three times)	Percent inhibition of platelets aggregation [1]	Percent inhibition of platelets aggregation [2]	Percent inhibition of platelets aggregation [3]	Percent inhibition of platelets aggregation [4]	Percent inhibition of platelets aggregation [5]	Percent inhibition of platelets aggregation [6]	Percent inhibition of platelets aggregation [7]	Percent inhibition of platelets aggregation [8]	Percent inhibition of platelets aggregation [9]	Percent inhibition of platelets aggregation [10]	Percent inhibition of platelets aggregation [11]	Percent inhibition of platelets aggregation [12]	other results
COc1nccnc1SCC1CN(C)C2Cc3cn(C)c4cccc(c34)C2(OC)C1 (stereo not drawn) [355/918, 2-(10'-methoxy-1',6'-dimethylergoline-8'β-methyl)thio-3-methoxypyrazine]	very strong activity	–	–	–	–	–	–	–	–	–	–	–	–	inhibition at 25 µg/mL (Oryctolagus cuniculus, 25 γ/ml, 90 seconds after ADP (2.2 × 10^-4)): 25%; inhibition at 25 µg/mL (Oryctolagus cuniculus, 25 γ/ml, 180 seconds after ADP (2.2 × 10^-4)): 20%; inhibition at 25 µg/mL (Oryctolagus cuniculus, 25 γ/ml, 360 seconds after ADP (2.2 × 10^-4)): 26%; inhibition at 50 µg/mL (Oryctolagus cuniculus, 50 γ/ml, 90 seconds after ADP (2.2 × 10^-4)): 45%; inhibition at 50 µg/mL (Oryctolagus cuniculus, 50 γ/ml, 180 seconds after ADP (2.2 × 10^-4)): 31%; inhibition at 50 µg/mL (Oryctolagus cuniculus, 50 γ/ml, 360 seconds after ADP (2.2 × 10^-4)): 42%; inhibition at 100 µg/mL (Oryctolagus cuniculus, 100 γ/ml, 90 seconds after ADP (2.2 × 10^-4)): 80%; inhibition at 100 µg/mL (Oryctolagus cuniculus, 100 γ/ml, 180 seconds after ADP (2.2 × 10^-4)): 70%; inhibition at 100 µg/mL (Oryctolagus cuniculus, 100 γ/ml, 360 seconds after ADP (2.2 × 10^-4)): 80%; inhibition at 200 µg/mL (Oryctolagus cuniculus, 200 γ/ml, 90 seconds after ADP (2.2 × 10^-4)): 100%; inhibition at 200 µg/mL (Oryctolagus cuniculus, 200 γ/ml, 180 seconds after ADP (2.2 × 10^-4)): 100%; inhibition at 200 µg/mL (Oryctolagus cuniculus, 200 γ/ml, 360 seconds after ADP (2.2 × 10^-4)): 100%; IC50 (Oryctolagus cuniculus, inhibition of platelet aggregation, at all three times, read-out: ED50 (the source's name)): 55 to 70 µg/mL (≈ 130 to 165 µM)
CO[C@]12C[C@@H](CNc3nccnc3Cl)CN(C)[C@@H]1Cc1cn(C)c3cccc2c13 [355/898, 2-(10'methoxy-1',6'-dimethylergoline-8'β-methyl)amino-3-chloropyrazine]	–	17%	20%	30%	35%	31%	45%	67%	71%	76%	77%	82%	83%	–
CO[C@]12C[C@@H](CSc3cnccn3)CN(C)[C@@H]1Cc1cn(C)c3cccc2c13 [355/917, 2-(10'-methoxy-1',6'-dimethylergoline-8'β-methyl)thiopyrazine]	very low activity	–	–	–	–	–	–	–	–	10%	15%	12%	35%	–
COc1nccnc1NC[C@H]1CN(C)[C@@H]2Cc3cn(C)c4cccc(c34)[C@@]2(OC)C1 [355/899, 2-(10'-methoxy-1',6'-dimethylergoline-8'β-methyl)amino-3-methoxypyrazine]	–	–	–	–	10%	9%	10%	30%	30%	30%	60%	61%	61%	–
CO[C@]12C[C@@H](CNc3cncc(Cl)n3)CN(C)[C@@H]1Cc1cn(C)c3cccc2c13 [355/900, 2-(10'-methoxy-1',6'-dimethylergoline-8'β-methyl)amino-6-chloropyrazine]	very strong activity	10%	10%	10%	40%	25%	30%	80%	70%	80%	100%	100%	100%	ED50 [13]: 55 to 70 µg/mL
CO[C@]12C[C@@H](CNc3cnccn3)CN(C)[C@@H]1Cc1cn(C)c3cccc2c13 [355/895, 2-(10'-methoxy-1',6'-dimethylergoline-8'β-methyl)aminopyrazine]	very low activity	–	–	–	–	–	5%	10%	12%	20%	50%	55%	62%	–
CO[C@]12C[C@@H](CSc3nccnc3Cl)CN(C)[C@@H]1Cc1cn(C)c3cccc2c13 [355/915, 2-(10'-methoxy-1',6'-dimethylergoline-8'β-methyl)thio-3-chloropyrazine]	very strong activity	10%	10%	10%	20%	15%	25%	75%	75%	80%	100%	100%	100%	ED50 [13]: 55 to 70 µg/mL
